For three molecules, IC100, IC50 and viability results are on record in US9169241B2, “Quinolinyloxyphenylsulfonamides” (Max-Planck-Gesellschaft Zur Forderung der Wissenschaften …, priority 2009, dated 2015).

Holding throughout (assay type): cell-based
For assay [1], the system named is A172. The experiment in a line: Matrigel outgrowth assay/branching assay. The following applies: Homo sapiens, A 172, Table Vb, read-out: Total branching inhibition in Matrigel A172. In short, it runs like this:
(§1)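 Matrigel 3 mg/ml, polymerized 1 h 37° C; 5000 cells/well + cmpd 3.125/1.56/0.78 μM or DMSO. Imaged 48/72/96 h, 5× objective. Positive = total branching block.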

The subject of assay [2] is U118. The experiment in a line: Matrigel outgrowth assay/branching assay. The conditions noted are these: Table Vb, read-out: Total branching inhibition in Matrigel U118. A digest of the protocol:
as §1

Assay [3] has as its system SF126. In words: Matrigel outgrowth assay/branching assay. The following applies: Homo sapiens, SF-126, Table Vb, read-out: Total branching inhibition in Matrigel SF126. A digest of the protocol:
as §1

In assay [4] the test system is tumor cell. The experiment in a line: Matrigel outgrowth assay/branching assay (Table Va). A digest of the protocol: as §1
In assay [5] the test system is viable cells in culture. In words: Cell viability assay at 10 μM (CellTiter-Glo, Table VII).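 Also: graded A 0-20%; B 21-40%; C 41-60%; D over 60% viable cells relative to DMSO control.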 The following applies: compound 10 μM, 72 h. In short, it runs like this: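 Cells were seeded at 1000 cells/well in 96-well plates in 100 μl culture medium and incubated for 72 h with 10 μM compound or a DMSO control. ATP content, which reflects metabolically active and therefore viable cells, was then determined by CellTiter-Glo luminescence (Promega) per the manufacturer's instructions and expressed relative to the DMSO control.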
Background: In ATP-based viability assays light output follows the ATP content of the culture.

Setting [6] is: Homo sapiens, C8161 cells, read-out: Total branching inhibition in Matrigel C8161.
The mark [7] stands for this setting: Homo sapiens, Hs-578T, Hs578T cells, read-out: Total branching inhibition in Matrigel Hs578T.
Where [8] appears, read: U118 cells, read-out: Total branching inhibition in Matrigel U118.
The mark [9] stands for this setting: U138 cells, read-out: Total branching inhibition in Matrigel U138.
The mark [10] stands for this setting: Homo sapiens, HCT-116, HCT116 def, read-out: percentage (%) of viable cells HCT 116def.
[11] abbreviates: Homo sapiens, HCT-116, HCT116 wt, read-out: percentage (%) of viable cells HCT 116wt.
Setting [12] is: Homo sapiens, HT-29, HT29, read-out: percentage (%) of viable cells HT29.
Setting [13] is: Homo sapiens, NCI-H358, H358, read-out: percentage (%) of viable cells H358.
The mark [14] stands for this setting: Homo sapiens, NCI-H1650, H1650, read-out: percentage (%) of viable cells H1650.
The mark [15] stands for this setting: Homo sapiens, NCI-H1666, H1666, read-out: percentage (%) of viable cells H1666.
[16] abbreviates: Homo sapiens, NCI-H1975, H1975, read-out: percentage (%) of viable cells H1975.
[17] abbreviates: Homo sapiens, NCI-H1993, H1993, read-out: percentage (%) of viable cells H1993.
[18] abbreviates: Homo sapiens, A549, read-out: percentage (%) of viable cells A549.
[19] abbreviates: Homo sapiens, HCC827, read-out: percentage (%) of viable cells HCC827.
Setting [20] is: Homo sapiens, SW480, read-out: percentage (%) of viable cells SW480.
The mark [21] stands for this setting: RKO, read-out: percentage (%) of viable cells RKO.

Like-named read-outs stand apart in the source and are kept apart here.

As for `COc1cc2c(Oc3ccc(NS(=O)(=O)c4cc(F)ccc4F)cc3F)ccnc2cc1OCCCN1CCCCC1` [Example 1, 2,5-Difluoro-N-{3-fluoro-4-[6-methoxy-7-(3-piperidin-1-yl-propoxy)-quinolin-4-yloxy]-phenyl}-benzenesulfonamide], the IC100 in assay [1], in assay [2] and in assay [3] was not above 12.5 µM throughout. Moreover, the IC50 in assay [4] (setting [6]), in assay [4] (setting [7]), in assay [4] (setting [8]) and in assay [4] (setting [9]) was not above 5 µM each time. The viability at 10 µM in assay [5] (setting [10]) was 0 to 20%; in assay [5] (setting [11]) it was 0 to 20%; in assay [5] (setting [12]), 21 to 40%; in assay [5] (setting [13]) it was 0 to 20%; in assay [5] (setting [14]), 41 to 60%; in assay [5] (setting [15]) it was 41 to 60%. In addition, the viability at 10 µM is 21 to 40% in assay [5] (setting [16]); 21 to 40% in assay [5] (setting [17]); more than 60% in assay [5] (setting [18]); 21 to 40% in assay [5] (setting [19]); 0 to 20% in assay [5] (setting [20]); 0 to 20% in assay [5] (setting [21]).

`COc1cc2c(Oc3ccc(NS(=O)(=O)c4ccccc4C(F)(F)F)cc3F)ccnc2cc1OCCCN1CCCCC1C` (stereo not drawn) [Example 99, N-(3-Fluoro-4-{6-methoxy-7-[3-(2-methyl-piperidin-1-yl)-propoxy]-quinolin-4-yloxy}-phenyl)-2-trifluoromethyl-benzenesulfonamide]: the results for the IC100 in assay [1], in assay [2] and in assay [3] were more than 12.5 µM, not above 12.5 µM and not above 12.5 µM, respectively. Also, the IC50 is 5 to 50 µM in assay [4] (setting [6]), not above 5 µM in assay [4] (setting [7]), not above 5 µM in assay [4] (setting [8]) and not above 5 µM in assay [4] (setting [9]). For the same molecule, the viability at 10 µM in assay [5] (setting [10]) was more than 60%; in assay [5] (setting [11]) it was 0 to 20%; in assay [5] (setting [12]) it was 21 to 40%; in assay [5] (setting [13]), 0 to 20%; in assay [5] (setting [14]), 21 to 40%; in assay [5] (setting [15]), 41 to 60%. Moreover, the viability at 10 µM is 21 to 40% in assay [5] (setting [16]); 21 to 40% in assay [5] (setting [17]); 21 to 40% in assay [5] (setting [18]); 41 to 60% in assay [5] (setting [19]); 0 to 20% in assay [5] (setting [20]); 21 to 40% in assay [5] (setting [21]).

Turning to `COc1cc2c(Oc3ccc(NS(=O)(=O)c4ccccc4C(F)(F)F)cc3F)ccnc2cc1OCCCN(C)C` [Example 100, N-{4-[7-(3-Dimethylamino-propoxy)-6-methoxy-quinolin-4-yloxy]-3-fluoro-phenyl}-2-trifluoromethyl-benzenesulfonamide], the IC100 in assay [1] is more than 12.5 µM; in assay [2], not above 12.5 µM; in assay [3], not above 12.5 µM. Further, the IC50 was not above 5 µM in assay [4] (setting [6]), not above 5 µM in assay [4] (setting [7]), not above 5 µM in assay [4] (setting [8]) and 5 to 50 µM in assay [4] (setting [9]). In addition, the viability at 10 µM in assay [5] (setting [10]) is 0 to 20%; in assay [5] (setting [11]) it was 0 to 20%; in assay [5] (setting [12]) it was 21 to 40%; in assay [5] (setting [13]) it was 0 to 20%; in assay [5] (setting [14]), 21 to 40%; in assay [5] (setting [15]), 21 to 40%. The viability at 10 µM in assay [5] (setting [16]) was 41 to 60%; in assay [5] (setting [17]), 41 to 60%; in assay [5] (setting [18]) it was more than 60%; in assay [5] (setting [19]), 21 to 40%; in assay [5] (setting [20]), 0 to 20%; in assay [5] (setting [21]), 0 to 20%.
